From publication PMC6974524 (Frontiers in Microbiology, 2020)
≈ marks a conversion by molar mass, not a printed value. Where “and” joins values, the source holds several entries; their conditions need not be identical. Equal entries are not always repeated. Entries after “also recorded” stand apart in the source; their conditions may differ. Where two headings read alike, the source gives them in different places.

Tests used:
DdlA = DdlA (Mycobacterium tuberculosis, UniProt P9WP31); assay type: biochemical; conditions: for Kcat: Vmax divided by enzyme concentration
Source text: The activity of DdlA was monitored by coupling with pyruvate kinase (PK) and lactate dehydrogenase (LDH; Sigma-Aldrich) to detect the release of ADP. […] The assay system was monitored via a Perkin Elmer EnSpire® 2300 Multimode Plate Reader (PerkinElmer, MA, United States) by detecting decreases in NADH.
The calibration curve of the ultraviolet absorption of NADH at 340 nm to its concentrations was fabricated before studying the enzymatic kinetics of DdlA. The kinetic parameters of DldA were determined using serial twofold dilutions of one substrate (from 1 mM to 31.25 μM), while the other substrate was held constant at 1 mM. Km and Vmax values were calculated using non-linear regression of the Michaelis-Menten model in GraphPad Prism 5.0 (GraphPad Software, Inc., San Diego, CA, United States). Kcat was calculated based on the molecular weight of DdlA (42 kDa).

clinical Mtb strains = assay: microbe, parasite or virus in culture; assay type: cell-based, Mycobacterium tuberculosis; conditions: for MIC: Mycobacterium tuberculosis
Mtb DdlA = Mtb DdlA (Mycobacterium tuberculosis, UniProt P9WP31); assay: DdlA inhibition, PK/LDH-coupled assay detecting ADP release (NADH decrease); assay type: biochemical
HepG2 cells [1] = assay: Cytotoxicity assay (MTT), HepG2; conditions: for SI: HepG2 TC50 relative to H37Rv MIC
[2] = system: Vero green-monkey kidney cells; assay: Cytotoxicity assay (MTT), Vero; conditions: Vero TC50 relative to H37Rv MIC
HepG2 cells [3] = system: HepG2 cells
Mtb H37Rv [4] = assay: microbe, parasite or virus in culture; assay type: cell-based, Mycobacterium tuberculosis; conditions: for MIC: Mycobacterium tuberculosis, 336 h
Mtb H37Rv [5] = assay: Mouse model of TB, pulmonary bacterial load; assay type: in vivo, Balb/c mice; conditions: 25 mg/kg by gavage, 15 administrations (five times per week); vehicle 5.58
Source text: Specific pathogen-free (SPF) male Balb/c mice were purchased from the Institute of Laboratory Animal Sciences at the Chinese Academy of Medical Sciences and Peking Union Medical College. All animal experiments were supervised and approved by the Institutional Animal Care and Use Committee of the Institute of Medicinal Biotechnology. Twenty-six mice (6–8 weeks old, 18–20 g) were infected with Mtb H37Rv (about 100 CFU) via the 099C A4224 Inhalation Exposure System (Glas-col, Terre Haute, IN, United States). At 15 days after inoculum, two mice were anesthetized and decapitated to confirm the success of infection. DCS, INH, IMB-0283, and vehicle (0.5% CMC-Na) were administered through a gavage route (six mice per group). All chemicals were dosed at 25 mg/kg. Mice were sacrificed after 15 administrations (five times per week) to quantify pulmonary bacterial loads via counting CFUs.

[6] = system: Vero green-monkey kidney cells; conditions: 2 days
Mtb H37Rv [7] = assay: Morphology of Mtb by scanning electron microscopy; assay type: cell-based, Mycobacterium tuberculosis; conditions: 0.35 μg/mL
C[C@@H](N)C(=O)O = assay: purified protein, by the assay type; conditions: pH 8.0; 37.0 °C
[8] = substrate of DdlA, other substrate at 1 mM
[9] = Dixon plot, Figure 4 panels A, C, substrate ATP inferred, read-out: Ki for DdlA (ATP) (converted)
[10] = Dixon plot, competing substrate ATP, read-out: Ki for DdlA (ATP) (converted)
[11] = Mtb H37Rv, 2 weeks at 37°C, read-out: MIC

Chain of DdlA (P9WP31 whole entry, looked up): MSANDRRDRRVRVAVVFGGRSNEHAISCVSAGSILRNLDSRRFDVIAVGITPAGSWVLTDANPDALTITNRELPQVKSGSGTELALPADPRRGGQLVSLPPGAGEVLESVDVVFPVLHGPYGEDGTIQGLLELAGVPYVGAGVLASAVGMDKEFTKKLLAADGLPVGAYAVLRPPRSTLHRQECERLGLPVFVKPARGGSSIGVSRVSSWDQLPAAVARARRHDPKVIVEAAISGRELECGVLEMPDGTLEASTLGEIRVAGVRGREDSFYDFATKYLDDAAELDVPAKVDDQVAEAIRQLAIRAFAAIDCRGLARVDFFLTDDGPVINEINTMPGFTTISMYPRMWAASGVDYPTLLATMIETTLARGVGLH
Chain of Mtb DdlA (P9WP31 whole entry, looked up): as above

Molecule: Nc1ncnc2c1ncn2[C@@H]1O[C@H](COP(=O)(O)OP(=O)(O)OP(=O)(O)O)[C@@H](O)[C@H]1O [ATP]
- Kcat (DdlA): 405.8 min^–1 and 383.00 ± 14.14 min^–1
- Km (DdlA; [8]): 360 ± 30.5 µM
- Vmax (DdlA; [8]): 20.29 μMmin^–1 and 19.15 ± 0.705 μMmin^–1

Molecule: C[C@@H](N)C(=O)O [D-Ala, D-alanine]
- Kcat (DdlA): 568.79 ± 48.93 min^–1
- Vmax (DdlA; [8]): 28.44 ± 2.444 μMmin^–1

Molecule: N[C@@H]1CON=C1O [DCS, D-cycloserine, reference compound]
- MICs to several clinical strains (clinical Mtb strains; range over clinical strains): did not show any inhibitory effect
- Ki (Mtb DdlA; [9]): 106 µM
- Ki (Mtb DdlA; [10]): 107 µM
- Ki (Mtb DdlA; Ki for DdlA (D-Ala)): 182 µM
- SI (HepG2 cells [1]): 86.25
- SI [2]: 127.75
- SI index (HepG2 cells [3]; human (HepG2) and green monkey (Vero)): about 80
- MIC (Mtb H37Rv [4]; [11]): 16 µg/mL (≈ 157 µM)
- Mtb load in mouse lungs (Mtb H37Rv [5]): did not yield any such treatment efficacy; also recorded: did not yield any antibacterial activity; also recorded: showed no antibacterial activity

Molecule: OC1(c2ccc(OC(F)F)cc2)C[N+](c2ccccc2)=C2CCCCN21 (centres unmarked) [IMB-0283]
- TC50 [6]: 249.8 µg/mL
- MIC (clinical Mtb strains; range over clinical strains, read-out: MICs to several clinical strains): 0.5 to 4 µg/mL
- MIC (clinical Mtb strains; strain FJ05060, S to INH, RMP, EMB, STR, CPM, KAN, OFX, read-out: MIC): 0.5 µg/mL
- MIC (clinical Mtb strains; strain FJ05120, R to INH, RMP, read-out: MIC): 2 µg/mL
- MIC (clinical Mtb strains; strain FJ05189, R to INH, RMP, read-out: MIC): 1 µg/mL
- MIC (clinical Mtb strains; strain FJ05195, R to INH, RMP, EMB, STR, KAN, OFX, S to CPM, read-out: MIC): 4 µg/mL
- MIC (clinical Mtb strains; strain FJ05349, S to INH, RMP, EMB, STR, CPM, KAN, OFX, read-out: MIC): 0.5 µg/mL
- MIC (clinical Mtb strains; strain xz, R to INH, RMP, STR, CPM, OFX, S to EMB, KAN, read-out: MIC): 4 µg/mL
- Ki (Mtb DdlA; [9]): 5.43 µM
- Ki (Mtb DdlA; [10]): 4.44 µM
- Ki (Mtb DdlA; Ki for DdlA (D-Ala)): 32.6 µM and 39.9 µM
- Inhibitory mode (Mtb DdlA; Lineweaver-Burk and Dixon plots): competed with both substrates of DdlA
- IC50 (Mtb DdlA; mean of n = 3): 6.16 µM
- IC50 (Mtb DdlA; printed in Figure 3B): 7.62 µM
- SI (HepG2 cells [1]): 230.8
- SI index (HepG2 cells [1]; cell line not specified (HepG2 and Vero)): greater than 200
- Morphology of Mtb (Mtb H37Rv [7]; 12 h): typical long-rod morphology
- Morphology of Mtb (Mtb H37Rv [7]; 7 days): shrunken, shorter, and fragmented
- SI [2]: 499.6
- TC50 (HepG2 cells [3]; human, 2 days): 115.4 µg/mL
- MIC (Mtb H37Rv [4]; [11]): 0.5 µg/mL
- Mtb load in mouse lungs (Mtb H37Rv [5]): 4.40 log CFU/mL

Molecule: NNC(=O)c1ccncc1 [INH, isoniazid]
- Reduction of MIC when combined with IMB-0283 (Mtb H37Rv [4]; H37Rv, IMB-0283 at 0.125 μg/mL): eightfold
- MIC when combined with IMB-0283 (Mtb H37Rv [4]; H37Rv, IMB-0283 at 0.125 μg/mL (0.25 × MIC)): 0.016 µg/mL
- MIC (Mtb H37Rv [4]; [11]): 0.125 µg/mL (≈ 0.911 µM)
- Mtb load in mouse lungs (Mtb H37Rv [5]): 3.29 log CFU/mL

Molecule: CO[C@H]1/C=C/O[C@@]2(C)Oc3c(C)c(O)c4c(O)c(c(/C=N/N5CCN(C)CC5)c(O)c4c3C2=O)NC(=O)/C(C)=C\C=C\[C@H](C)[C@H](O)[C@@H](C)[C@@H](O)[C@@H](C)[C@H](OC(C)=O)[C@@H]1C [RMP, rifampin]
- MIC when combined with IMB-0283 (Mtb H37Rv [4]): 0.016 µg/mL
- MIC (Mtb H37Rv [4]; H37RV): 0.063 µg/mL (≈ 0.0766 µM)

Molecule: (Mycobacterium tuberculosis H37Rv)
- Vmax (C[C@@H](N)C(=O)O): 28.4 µM/min
- kcat (C[C@@H](N)C(=O)O): 9.48 s⁻¹
